Data published in US20070107083A1, “Method for regulating plant growth” (priority 2004, published 2007).
Entries after “also recorded” stand apart in the source; their conditions may differ.

What was measured:
[1] = tested on: A. thaliana high DOGT1-expression line (1319/2); assay: Phenotype of DOGT1-overexpressing seedlings on brassinosteroid media; format: in vivo, Arabidopsis thaliana; details: 10 day old seedlings
Description: (§1) 10 day old seedlings were transferred to MS media resp. MS media containing 1.0 μM BL and incubated for another 10 days before phenotypic analysis. […] Right: Seedlings of lines expressing DOGT1 grown on MS media show a BR-deficient phenotype (short hypocotyls and smaller leaves with shorter petioles compared to wild-type).
(§2) Plant material and growth conditions. A. thaliana experiments were conducted with the wild-type ecotype Columbia-0 (Col-0). For propagation seeds were sterilized, plated on standard MS growth medium (Murashige et al., Plant Physiology 15 (1962), 473-497) supplemented with 1.0% sucrose and 1.0% phytagar (Life Technologies) and subjected to a 2 day dark treatment at 4° C. to synchronize germination. The seedlings were grown for 2 weeks in a controlled environment of 16 h/8 h light-dark cycle (140 μmol m^−2 sec^−1 white light) at 22° C. before they were transferred to soil and grown at 20° C. and 55% humidity under continuous white light.
(§3) The effect of externally applied epi-brassinolide (epi-BL) was determined by transferring 10 day old seedlings of wild-type and a high DOGT1-expression line (1319/2) to media containing different concentrations of the brassinosteroid. The plants were incubated for 10 days before the phenotype was analysed.

[2] = tested on: A. thaliana wild-type Col-0; assay: Phenotype of wild-type seedlings on brassinosteroid media; format: in vivo, Arabidopsis thaliana; details: 10 day old seedlings
Description: as §1, §2, §3

[3] = tested on: dwarf mutants with defects in BR biosynthesis; details: application of brassinolide; cited from earlier work
[4] = tested on: Saccharomyces cerevisiae strain YZGA452; format: cell-based
[5] = tested on: Wild-type Saccharomyces cerevisiae; format: cell-based
[6] = tested on: DOGT1 promoter (PDOGT1-GUS); format: in vivo, Arabidopsis thaliana; details: seedlings; DON 5 ppm for 4 h, ACC 2 μM for 1 h, SA 200 μM for 12 h, JA 50 μM for 1 h
DOGT1 (UGT73C5) mRNA = assay: Semiquantitative RT-PCR of DOGT1 mRNA after compound treatment; format: in vivo, Arabidopsis thaliana; details: for DOGT1 mRNA expression (RT-PCR): seedlings in liquid MS, 5 ppm DON, 200 μM SA, 2 μM ACC or 50 μM JA
UGT73C4 mRNA = assay: Semiquantitative RT-PCR of 73C4 mRNA after compound treatment; format: in vivo, Arabidopsis thaliana; details: seedlings in liquid MS; 5 ppm DON, 200 μM SA
UGT73C6 mRNA = assay: Semiquantitative RT-PCR of 73C6 mRNA after compound treatment; format: in vivo, Arabidopsis thaliana; details: seedlings in liquid MS, 5 ppm DON, 200 μM SA, 2 μM ACC or 50 μM JA
[7] = MS media containing 1.0 μM BL, another 10 days
[8] = media with different concentrations, 10 days

Row | Compound | PDOGT1-GUS expression [6] | DOGT1 mRNA expression (RT-PCR) (DOGT1 (UGT73C5) mRNA) | 73C4 mRNA expression (RT-PCR) (UGT73C4 mRNA) | 73C6 mRNA expression (RT-PCR) (UGT73C6 mRNA) | also measured
1 | CC(C)[C@H](C)[C@@H](O)[C@H](O)[C@@H](C)[C@H]1CC[C@H]2[C@@H]3COC(=O)[C@H]4C[C@H](O)[C@H](O)C[C@]4(C)[C@H]3CC[C@]12C [BL, Brassinolide] |  |  |  |  | phenotype of DOGT1-expressing seedlings [1, 7]: restores wild-type growth; phenotype of wild-type seedlings [2, 7]: typical growth response; growth of dwarf mutants with defects in BR biosynthesis [3]: restores normal growth
2 | CC1=C[C@H]2O[C@@H]3[C@H](O)C[C@](C)([C@@]2(CO)[C@H](O)C1=O)[C@]31CO1 [DON, deoxynivalenol] | induce PDOGT1-GUS expression | DON inducible expression | DON inducible | stronger induction of expression | growth of yeast transformed with the empty library plasmid ([4]; 180 ppm DON in media): completely inhibit growth; sensitivity of strain YZGA452 ([4]; strain deficient in four ABC transporters): hypersensitive; resistance of wild-type yeast [5]: highly resistant; time of peak of transcript amounts (DOGT1 (UGT73C5) mRNA; incubation with 5 ppm DON, stated for DOGT1, 73C4 and 73C6 transcripts): 4 h
3 | CC/C=C\C[C@H]1C(=O)CC[C@@H]1CC(=O)O [JA, jasmonic acid] | No induction of expression | responded weekly with elevated mRNA levels |  | responded weekly with elevated mRNA levels | DOGT1 mRNA expression (RT-PCR) (DOGT1 (UGT73C5) mRNA; listed as Jasmonic acid): weak induction of expression; 73C6 mRNA expression (RT-PCR) (UGT73C6 mRNA; listed as Jasmonic acid): weak induction of expression
4 | O=C(O)c1ccccc1O [SA, salicylic acid] | No induction of expression | rather weakly; also recorded: responded weekly with elevated mRNA levels | rather weakly | rather weakly; also recorded: responded weekly with elevated mRNA levels | 
5 | CC(C)[C@@H](C)[C@@H](O)[C@H](O)[C@@H](C)[C@H]1CC[C@H]2[C@@H]3COC(=O)[C@H]4C[C@H](O)[C@H](O)C[C@]4(C)[C@H]3CC[C@]12C [epi-BL, epi-brassinolide] |  |  |  |  | phenotype of high DOGT1-expression line 1319/2 [1, 8]: restored to wild-type phenotype; phenotype of Col-0 [2, 8]: typical growth response
